Laboratory results: US10253007B2, “Taxanes compounds, preparation method therefor, and uses thereof” (Jiangsu Tasly Diyi Pharmaceutical Co., Ltd., priority 2013, dated 2019)
Where two headings read alike, the source gives them in different places.

Tests used:
16 cancer cell lines = assay: Preliminary cytotoxicity evaluation on 16 cancer cell lines (MTT); format: cell-based, human; conditions: preliminary screen at 1 μM, compared with paclitaxel
Excerpt: (§1) 1. Cytotoxicity Assay Using Human Tumor Cell Lines
(§2) Paclitaxel was used as the positive drug.
In both cancer cell lines of A549 and B16, the cytotoxicity of the taxanes derivatives is slightly lower than that of the positive control drug.

B16 melanoma = assay: MTT assay, proliferation inhibition; format: cell-based; conditions: read-out: Proliferation inhibition rate
Excerpt: as §1, §2

HeLa cervical cancer = assay: MTT assay, proliferation inhibition; format: cell-based; conditions: Homo sapiens, read-out: Proliferation inhibition rate
Excerpt: as §1, §2

HL60 leukemia = assay: MTT assay, proliferation inhibition; format: cell-based; conditions: Homo sapiens, HL-60, read-out: Proliferation inhibition rate
Excerpt: as §1, §2

A2780 ovarian cancer = assay: MTT assay, proliferation inhibition; format: cell-based; conditions: Homo sapiens, read-out: Proliferation inhibition rate
Excerpt: as §1, §2

A375 melanoma = assay: MTT assay, proliferation inhibition; format: cell-based; conditions: Homo sapiens, A-375, read-out: Proliferation inhibition rate
Excerpt: as §1, §2

MCF-7 breast cancer = assay: MTT assay, proliferation inhibition; format: cell-based; conditions: Homo sapiens, MCF7, read-out: Proliferation inhibition rate
Excerpt: as §1, §2

LNCaP prostate cancer = assay: MTT assay, proliferation inhibition; format: cell-based; conditions: Homo sapiens, read-out: Proliferation inhibition rate
Excerpt: as §1, §2

[1] = test system: NCI-H460 non-small cell lung cancer; assay: MTT assay, proliferation inhibition; format: cell-based; conditions: Homo sapiens, read-out: Proliferation inhibition rate
Excerpt: as §1, §2

HCT 116 colon cancer = assay: MTT assay, proliferation inhibition; format: cell-based; conditions: Homo sapiens, read-out: Proliferation inhibition rate
Excerpt: as §1, §2

BGC-823 gastric cancer = assay: MTT assay, proliferation inhibition; format: cell-based; conditions: Homo sapiens, read-out: Proliferation inhibition rate
Excerpt: as §1, §2

HT29 colon cancer = assay: MTT assay, proliferation inhibition; format: cell-based; conditions: Homo sapiens, HT-29, read-out: Proliferation inhibition rate
Excerpt: as §1, §2

MDA-MB-436 breast cancer = assay: MTT assay, proliferation inhibition; format: cell-based; conditions: Homo sapiens, read-out: Proliferation inhibition rate
Excerpt: as §1, §2

K562 leukemia = assay: MTT assay, proliferation inhibition; format: cell-based; conditions: Homo sapiens, read-out: Proliferation inhibition rate
Excerpt: as §1, §2

DU145 prostate cancer = assay: MTT assay, proliferation inhibition; format: cell-based; conditions: Homo sapiens, DU-145, read-out: Proliferation inhibition rate
Excerpt: as §1, §2

[2] = MTT assay, proliferation inhibition; format: cell-based; conditions: Homo sapiens, LN-18 gastric cancer, read-out: Proliferation inhibition rate
Excerpt: as §1, §2

[3] = test system: A549 non-small cell lung cancer; assay: MTT assay, proliferation inhibition; format: cell-based; conditions: Homo sapiens, read-out: Proliferation inhibition rate
Excerpt: as §1, §2

[4] = Caco-2 cell monolayer membrane transport assay; conditions: human; for Papp A→B: Caco-2, Papp A-B; for recovery: Caco-2, Recovery rate in mass
Excerpt: (§3) Caco-2 Cell Monolayer Membrane Transport Assay
(§4) Human-derived colorectal adenocarcinoma cell line Caco-2 cell monolayer model was used to study the bidirectional transport of the target compounds from the apical (AP) side to the basolateral (BL) side and from BL side to AP side. HPLC was used for quantitative analysis to calculate transport parameters, apparent permeability coefficient (Papp) and the efflux ratio.

[5] = test system: breast cancer cell line MCF-7; assay: IC50 values on breast cancer cell line MCF-7; format: cell-based; conditions: Homo sapiens, MCF7, 72 h
Excerpt: From the activity evaluation data of the above-mentioned preliminary screen, it can be seen that the series of taxanes derivatives synthesized in the present invention have activity (although the activity of PCMI-43 is weakened). Afterward, most of the compounds are picked up from these derivatives to examine their IC50 values on breast cancer cell line MCF-7. Paclitaxel is used as the positive control drug. Experiments for each compound were independently repeated for three times and multiple holes were used in each experiment. The exposure time of drugs was 72 hours.

Caco-2 cell monolayer = conditions: human
Excerpt: as §3, §4

[6] = reported value for paclitaxel; cited from earlier work
in vitro = conditions: human, Caco-2, Papp A-B, Mean
Excerpt: as §3, §4

[7] = Mean, Caco-2, A-B, mean of two samples
[8] = Sample-01, Caco-2, A-B, Sample-01
[9] = Sample-02, Caco-2, A-B, Sample-02

Structure (SMILES)	cytotoxicity (in words) (16 cancer cell lines)	inhibition at 1 µM (B16 melanoma) [%]	inhibition at 1 µM (HeLa cervical cancer) [%]	inhibition at 1 µM (HL60 leukemia) [%]	inhibition at 1 µM (A2780 ovarian cancer) [%]	inhibition at 1 µM (A375 melanoma) [%]	inhibition at 1 µM (MCF-7 breast cancer) [%]	inhibition at 1 µM (LNCaP prostate cancer) [%]	inhibition at 1 µM [1] [%]	inhibition at 1 µM (HCT 116 colon cancer) [%]	inhibition at 1 µM (BGC-823 gastric cancer) [%]	inhibition at 1 µM (HT29 colon cancer) [%]	inhibition at 1 µM (MDA-MB-436 breast cancer) [%]	inhibition at 1 µM (K562 leukemia) [%]	inhibition at 1 µM (DU145 prostate cancer) [%]	inhibition at 1 µM [2] [%]	inhibition at 1 µM [3] [%]	Papp A→B [4, 7] [×10⁻⁶ cm/s]	Papp A→B [4, 8] [×10⁻⁶ cm/s]	Papp A→B [4, 9] [×10⁻⁶ cm/s]	further results
CO[C@H]1C(=O)[C@]2(C)C=C[C@@H](O)[C@](CO)(OC(C)=O)[C@H]2[C@H](OC(=O)c2ccccc2)[C@]2(O)C[C@H](OC(=O)[C@H](O)[C@@H](NC(=O)c3ccccc3)c3ccccc3)C(C)=C1C2(C)C [PCMI-43]	weakened	13.3	52	76.3	70	77.8	68.3	61.2	62.1	46.1	38.2	36.4	35.7	80.9	63.4	73.2	53.9	3.05	3.21	2.89	recovery [4, 7]: 72%; recovery [4, 8]: 76.6%; recovery [4, 9]: 67.5%
CO[C@H]1C(=O)[C@]2(C)C=C[C@@H](O)[C@](CO)(OC(C)=O)[C@H]2[C@H](OC(=O)c2ccccc2)[C@]2(O)C[C@H](OC(=O)[C@H](O)[C@@H](NC(=O)OC(C)(C)C)c3ccccc3)C(C)=C1C2(C)C [PCMI-44]	remains good cytotoxicity	75.3	99.3	96.3	95.6	93.9	95.2	86.9	85.2	67.1	90.8	88.3	82.7	94.4	89.2	89.8	75.9	5.83	5.28	6.39	IC50 ([5]; read-out: MCF-7(IC50, nM)): 10.9 ± 0.16 nM; Papp B→A ([4]; Caco-2): 27.2 ×10⁻⁶ cm/s; efflux ratio ([4]; Caco-2): 4.76; Papp A→B ([4]; Caco-2 cell line (21 days), bidirectional transport, Table 5): 5.72 ×10⁻⁶ cm/s; recovery [4, 7]: 95.8%; recovery [4, 8]: 85.7%; recovery [4, 9]: 106%
CC(=O)O[C@H]1C(=O)[C@@]2(C)[C@H]([C@H](OC(=O)c3ccccc3)[C@]3(O)C[C@H](OC(=O)[C@H](O)[C@@H](NC(=O)c4ccccc4)c4ccccc4)C(C)=C1C3(C)C)[C@]1(OC(C)=O)CO[C@@H]1C[C@@H]2O [Paclitaxel, reference compound]		84	101	96.8	96.7	96.2	94.2	87.1	87.5	70.4	92.5	88.4	83.1	96.6	90.6	94.5	81.6				Papp A-B (Caco-2 cell monolayer): 0.97 10^−6 cm/s; Papp B-A (Caco-2 cell monolayer): 33.39 10^−6 cm/s; efflux ratio (Caco-2 cell monolayer): 34.38; IC50 ([5]; MCF-7, exposure 72 hours, mean±SD of three independent experiments, read-out: MCF-7(IC50)): ~7.05 nM; reported absolute oral bioavailability [6]: less than 5%; Papp A→B (in vitro): 0.97 ×10⁻⁶ cm/s
